The numbers were not newly measured in patent US20220088024A1, “METHODS FOR TREATING CANCER USING TOZADENANT” (Biotie Therapies, Inc., priority 2018, published 2022), which cites them from elsewhere.

The test system of the data set is mouse tumor models. As to conditions: cited from earlier work.

With `Cc1ccc(-c2nc(N)nc3c2nnn3Cc2cccc(CO[C@H]3CCOC3)n2)o1` [CPI444], the “Efficacy in mouse tumor models” value (alone and in combination with an anti-PD-1 agent (Willingham et al. 2016)) is reported as “effective”. Turning to `Nc1nc2c(cnn2CCc2ccccc2)c2nc(-c3ccco3)nn12` [SCH 58261], for the setting “monotherapy (Hammerl et al. 2016)”, the “Activity in a mouse tumor model” value was “demonstrated activity as monotherapy”.
